Source: US20210238225A1, “PEPTIDOMIMETIC INHIBITORS OF THE PEPTIDYL-PROLYL CIS/TRANS ISOMERASE (PIN1)” (DANA-FARBER CANCER INSTITUTE, INC., priority 2018, published 2021)
Read-outs that look alike come from different tables or passages of the source. Non-standard residues stand in square brackets, D forms with d. Residues, ends and D or L forms follow the SMILES beside them. *: point of attachment. Phe(4-tBu) = CC(C)(C)c1ccc(C[C@H](N)C(=O)O)cc1; Dip = N[C@H](C(=O)O)C(c1ccccc1)c1ccccc1; Morpholine(3S-CO) = O=C(O)[C@@H]1COCCN1; Phe(4-F) = N[C@@H](Cc1ccc(F)cc1)C(=O)O; 2Nal = N[C@@H](Cc1ccc2ccccc2c1)C(=O)O; NH(4-Me-benzyl) = Cc1ccc(CN*)cc1; hPhe = N[C@@H](CCc1ccccc1)C(=O)O; Cit = NC(=O)NCCC[C@H](N)C(=O)O; aThr = C[C@H](O)[C@H](N)C(=O)O; X7 = c1ccc(-c2ccc(N*)cc2)cc1; Pip = O=C(O)[C@@H]1CCCCN1; Piperidide = C1CCN(*)CC1; Fluoroacetyl = O=C(CF)*; 2Abz = Nc1ccccc1C(=O)O; NHcBu = C1CC(N*)C1; X4 = CN(c1ccccc1)*; ClAc = O=C(CCl)*

Molecular target: Pin1 (GST-Pin1) (Homo sapiens, UniProt Q13526)
Test: Fluorescence polarization (FP) assay, binding to Pin1
Conditions: competition with fluorescein-labeled peptide probe, 12 hours pre-incubation at 4° C., Kenakin Ki equation

Chain of Pin1 (GST-Pin1) (Q13526 whole entry): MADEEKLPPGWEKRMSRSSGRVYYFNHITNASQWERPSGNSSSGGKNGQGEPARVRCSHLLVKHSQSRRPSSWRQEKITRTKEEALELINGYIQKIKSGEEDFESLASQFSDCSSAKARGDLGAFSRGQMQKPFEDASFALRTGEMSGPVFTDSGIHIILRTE

SMILES | Ki (read-out: Ki, μM (FP Assay)) [µM] | Ki (Ki, μM (FP Assay)) [µM]
CC(=O)N[C@@H](CCC(=O)O)C(=O)N1CCCC[C@H]1C(=O)N[C@@H](Cc1ccc2ccccc2c1)C(=O)N[C@@H](CCCNC(N)=O)C(N)=O [Compound 2-19, (S)-4-Acetamido-5-((S)-2-(((S)-1-(((S)-1-amino-1-oxo-5-ureidopentan-2-yl)amino)-3-(naphthalen-2-yl)-1-oxopropan-2-yl)carbamoyl)piperidin-1-yl)-5-oxopentanoic acid] (Ac-E[Pip][2Nal][Cit]-NH2) | > 10 | 
C[C@H](O)[C@H](NC(=O)[C@H](Cc1ccc2ccccc2c1)NC(=O)[C@@H]1CCCCN1C(=O)[C@H](CCC(=O)O)NC(=O)CCl)C(N)=O [Compound 2-7, (S)-5-((S)-2-(((S)-1-(((2S,3S)-1-Amino-3-hydroxy-1-oxobutan-2-yl)amino)-3-(naphthalen-2-yl)-1-oxopropan-2-yl)carbamoyl)piperidin-1-yl)-4-(2-chloroacetamido)-5-oxopentanoic acid] (ClAc-E[Pip][2Nal][aThr]-NH2) | 0.3 | 
COC(=O)CC[C@H](NC(=O)CCl)C(=O)N1CCCC[C@H]1C(=O)N[C@@H](Cc1c[nH]c2ccccc12)C(=O)N[C@@H](Cc1ccc2ccccc2c1)C(N)=O [Compound 2-24, Methyl (S)-5-((S)-2-(((S)-1-(((S)-1-Amino-3-(naphthalen-2-yl)-1-oxopropan-2-yl)amino)-3-(1H-indol-3-yl)-1-oxopropan-2-yl)carbamoyl)piperidin-1-yl)-4-(2-chloroacetamido)-5-oxopentanoate] (ClAc-E(OMe)[Pip]W[2Nal]-NH2) | 0.525 | 
NC(=O)CC[C@H](NC(=O)[C@H](Cc1ccc2ccccc2c1)NC(=O)[C@@H]1COCCN1C(=O)[C@H](CCC(=O)O)NC(=O)CCl)C(N)=O [Compound 2b-5, (S)-4-(2-Chloroacetamido)-5-((S)-3-(((S)-1-(((S)-1,5-diamino-1,5-dioxopentan-2-yl)amino)-3-(naphthalen-2-yl)-1-oxopropan-2-yl)carbamoyl)morpholino)-5-oxopentanoic acid] (ClAc-E[Morpholine(3S-CO)][2Nal]Q-NH2) | > 10 | 
NC(=O)NCCC[C@H](NC(=O)[C@H](Cc1c[nH]c2ccccc12)NC(=O)[C@@H]1CCCCN1C(=O)[C@H](CCc1ccccc1)NC(=O)CCl)C(=O)N1CCCCC1 [Compound 11-40, (S)—N—((S)-3-(1H-Indol-3-yl)-1-oxo-1-(((S)-1-oxo-1-(piperidin-1-yl)-5-ureidopentan-2-yl)amino)propan-2-yl)-1-((S)-2-(2-chloroacetamido)-4-phenylbutanoyl)piperidine-2-carboxamide] (ClAc-[hPhe][Pip]W[Cit]-Piperidide) |  | 0.087
COC(=O)CC[C@H](NC(=O)CCl)C(=O)N1CCCC[C@H]1C(=O)N[C@@H](Cc1c[nH]c2ccccc12)C(=O)N[C@@H](CCCNC(N)=O)C(=O)N(C)c1ccccc1 [Compound 11-15, Methyl (S)-5-((S)-2-(((S)-3-(1H-indol-3-yl)-1-(((S)-1-(methyl(phenyl)amino)-1-oxo-5-ureidopentan-2-yl)amino)-1-oxopropan-2-yl)carbamoyl)piperidin-1-yl)-4-(2-chloroacetamido)-5-oxopentanoate] (ClAc-E(OMe)[Pip]W[Cit]-X4) |  | 0.15
NC(=O)[C@H](Cc1c[nH]cn1)NC(=O)[C@H](Cc1ccc2ccccc2c1)NC(=O)[C@@H]1CCCCN1C(=O)[C@H](CCC(=O)O)NC(=O)CCl [Compound 2b-7, (S)-5-((S)-2-(((S)-1-(((S)-1-Amino-3-(1H-imidazol-4-yl)-1-oxopropan-2-yl)amino)-3-(naphthalen-2-yl)-1-oxopropan-2-yl)carbamoyl)piperidin-1-yl)-4-(2-chloroacetamido)-5-oxopentanoic acid] (ClAc-E[Pip][2Nal]H-NH2) | 4.02 | 
Cc1ccc(CNC(=O)[C@H](CCCNC(N)=O)NC(=O)[C@H](Cc2c[nH]c3ccccc23)NC(=O)[C@@H]2CCCCN2C(=O)[C@H](Cc2ccccc2)NC(=O)CF)cc1 [Compound 15, (S)—N—((S)-3-(1H-Indol-3-yl)-1-(((S)-1-((4-methylbenzyl)amino)-1-oxo-5-ureidopentan-2-yl)amino)-1-oxopropan-2-yl)-1-((2-fluoroacetyl)-L-phenylalanyl)piperidine-2-carboxamide] (Fluoroacetyl-F[Pip]W[Cit]-{NH(4-Me-benzyl)}) |  | > 10
COC(=O)CC[C@H](NC(=O)CCl)C(=O)N1CCCC[C@H]1C(=O)N[C@@H](Cc1c[nH]c2ccccc12)C(=O)N[C@@H](Cc1ccccc1)C(N)=O [Compound 2-23, Methyl (S)-5-((S)-2-(((S)-1-(((S)-1-Amino-1-oxo-3-phenylpropan-2-yl)amino)-3-(1H-indol-3-yl)-1-oxopropan-2-yl)carbamoyl)piperidin-1-yl)-4-(2-chloroacetamido)-5-oxopentanoate] (ClAc-E(OMe)[Pip]WF-NH2) | 0.231 | 
COC(=O)CC[C@H](NC(=O)CCl)C(=O)N1CCCC[C@H]1C(=O)N[C@@H](Cc1c[nH]c2ccccc12)C(=O)N[C@@H](CCCNC(N)=O)C(N)=O [Compound 2, Methyl (S)-5-((S)-2-(((S)-1-(((S)-1-amino-1-oxo-5-ureidopentan-2-yl)amino)-3-(1H-indol-3-yl)-1-oxopropan-2-yl)carbamoyl)piperidin-1-yl)-4-(2-chloroacetamido)-5-oxopentanoate] (ClAc-E(OMe)[Pip]W[Cit]-NH2) | 0.074 | 
N=C(N)NCCC[C@H](NC(=O)[C@@H](NC(=O)[C@@H]1CCCCN1C(=O)[C@H](CCC(=O)O)NC(=O)CCl)C(c1ccccc1)c1ccccc1)C(N)=O [Compound 2b-10, (S)-5-((S)-2-(((S)-1-(((S)-1-Amino-5-guanidino-1-oxopentan-2-yl)amino)-1-oxo-3,3-diphenylpropan-2-yl)carbamoyl)piperidin-1-yl)-4-(2-chloroacetamido)-5-oxopentanoic acid] (ClAc-E[Pip][Dip]R-NH2) | 0.85 | 
NC(=O)NCCC[C@H](NC(=O)[C@H](Cc1ccc2ccccc2c1)NC(=O)[C@@H]1CCCCN1C(=O)[C@H](CCC(=O)O)N1C(=O)C=CC1=O)C(N)=O [Compound 5, (S)-5-((S)-2-(((S)-1-(((S)-1-Amino-1-oxo-5-ureidopentan-2-yl)amino)-3-(naphthalen-2-yl)-1-oxopropan-2-yl)carbamoyl)piperidin-1-yl)-4-(2,5-dioxo-2,5-dihydro-1H-pyrrol-1-yl)-5-oxopentanoic acid] | > 10 | 
Cc1ccc(CNC(=O)[C@H](CCCNC(N)=O)NC(=O)[C@H](Cc2c[nH]c3ccccc23)NC(=O)[C@@H]2CCCCN2C(=O)[C@H](Cc2ccccc2)NCC#N)cc1 [Compound 12, (S)—N—((S)-3-(1H-indol-3-yl)-1-(((S)-1-((4-methylbenzyl)amino)-1-oxo-5-ureidopentan-2-yl)amino)-1-oxopropan-2-yl)-1-((cyanomethyl)-L-phenylalanyl)piperidine-2-carboxamide] | > 10 | 
COC(=O)CC[C@H](NC(C)=O)C(=O)N1CCCC[C@H]1C(=O)N[C@@H](Cc1c[nH]c2ccccc12)C(=O)N[C@@H](Cc1ccc(F)cc1)C(=O)NCc1ccc(C)cc1 [Compound 11-30, Methyl (S)-4-acetamido-5-((S)-2-(((S)-1-(((S)-3-(4-fluorophenyl)-1-((4-methylbenzyl)-amino)-1-oxopropan-2-yl)amino)-3-(1H-indol-3-yl)-1-oxopropan-2-yl)carbamoyl)piperidin-1-yl)-5-oxopentanoate] (Ac-E(OMe)[Pip]W[Phe(4-F)]-{NH(4-Me-benzyl)}) | > 10 | 
NC(=O)NCCC[C@H](NC(=O)[C@H](Cc1c[nH]c2ccccc12)NC(=O)[C@@H]1CCCCN1C(=O)[C@H](Cc1ccccc1)NC(=O)CCl)C(=O)NC1CCC1 [Compound 11-37, (S)-1-((2-Chloroacetyl)-L-phenylalanyl)-N—((S)-1-(((S)-1-(cyclobutylamino)-1-oxo-5-ureidopentan-2-yl)amino)-3-(1H-indol-3-yl)-1-oxopropan-2-yl)piperidine-2-carboxamide] (ClAc-F[Pip]W[Cit]-NHcBu) | 0.026 | 
NC(=O)NCCC[C@H](NC(=O)[C@H](Cc1ccc2ccccc2c1)NC(=O)c1ccccc1NC(=O)[C@H](CCC(=O)O)NC(=O)CCl)C(N)=O [Compound 2-16, (S)-5-((2-(((S)-1-(((S)-1-Amino-1-oxo-5-ureidopentan-2-yl)amino)-3-(naphthalen-2-yl)-1-oxopropan-2-yl)carbamoyl)phenyl)amino)-4-(2-chloroacetamido)-5-oxopentanoic acid] (ClAc-E[2Abz][2Nal][Cit]-NH2) | > 10 | 
CC(C)(C)c1ccc(C[C@H](NC(=O)[C@@H]2CCCCN2C(=O)[C@H](CCC(=O)O)NC(=O)CCl)C(=O)N[C@@H](CCCNC(=N)N)C(N)=O)cc1 [Compound 2b-14, (S)-5-((S)-2-(((S)-1-(((S)-1-Amino-5-guanidino-1-oxopentan-2-yl)amino)-3-(4-(tert-butyl)phenyl)-1-oxopropan-2-yl)carbamoyl)piperidin-1-yl)-4-(2-chloroacetamido)-5-oxopentanoic acid] (ClAc-E[Pip][Phe(4-tBu)]R-NH2) | 0.19 | 
COC(=O)CC[C@H](NC(=O)CCl)C(=O)N1CCCC[C@H]1C(=O)N[C@@H](Cc1c[nH]c2ccccc12)C(=O)N[C@@H](CCCNC(N)=O)C(=O)Nc1ccc(-c2ccccc2)cc1 [Compound 11-17, Methyl (S)-5-((S)-2-(((S)-1-(((S)-1-([1,1′-biphenyl]-4-ylamino)-1-oxo-5-ureidopentan-2-yl)amino)-3-(1H-indol-3-yl)-1-oxopropan-2-yl)carbamoyl)piperidin-1-yl)-4-(2-chloroacetamido)-5-oxopentanoate] (ClAc-E(OMe)[Pip]W[Cit]-X7) |  | > 10
CC(=O)N[C@@H](Cc1ccccc1)C(=O)N1CCCC[C@H]1C(=O)N[C@@H](Cc1c[nH]c2ccccc12)C(=O)N[C@@H](CCCNC(N)=O)C(=O)NCc1ccc(C)cc1 [Compound 11-36, (S)—N—((S)-3-(1H-Indol-3-yl)-1-(((S)-1-((4-methylbenzyl)amino)-1-oxo-5-ureidopentan-2-yl)amino)-1-oxopropan-2-yl)-1-(acetyl-L-phenylalanyl)piperidine-2-carboxamide] (Ac-F[Pip]W[Cit]-{NH(4-Me-benzyl)}) | > 10 | 
